Literature values as cited in patent US20220257562A1, “METHOD FOR IMPROVING ENDOMETRIOSIS AND METHOD FOR PRODUCING A MATERIAL USED THEREFOR” (NICHIMO CO., LTD., priority 2017, published 2022).

Legend:
MCF-7 = details: for effect on tamoxifen: MCF-7 / mammary tumors, Non-patent Literature 15, 17; for cell proliferation of estrogen-dependent breast cancer cells (MCF-7): Non-patent Literature 14, 16
ERβ = ERβ (Homo sapiens, UniProt Q92731); details: Non-Patent Literature 23
Sequence of ERβ (Q92731 whole entry, species assumed): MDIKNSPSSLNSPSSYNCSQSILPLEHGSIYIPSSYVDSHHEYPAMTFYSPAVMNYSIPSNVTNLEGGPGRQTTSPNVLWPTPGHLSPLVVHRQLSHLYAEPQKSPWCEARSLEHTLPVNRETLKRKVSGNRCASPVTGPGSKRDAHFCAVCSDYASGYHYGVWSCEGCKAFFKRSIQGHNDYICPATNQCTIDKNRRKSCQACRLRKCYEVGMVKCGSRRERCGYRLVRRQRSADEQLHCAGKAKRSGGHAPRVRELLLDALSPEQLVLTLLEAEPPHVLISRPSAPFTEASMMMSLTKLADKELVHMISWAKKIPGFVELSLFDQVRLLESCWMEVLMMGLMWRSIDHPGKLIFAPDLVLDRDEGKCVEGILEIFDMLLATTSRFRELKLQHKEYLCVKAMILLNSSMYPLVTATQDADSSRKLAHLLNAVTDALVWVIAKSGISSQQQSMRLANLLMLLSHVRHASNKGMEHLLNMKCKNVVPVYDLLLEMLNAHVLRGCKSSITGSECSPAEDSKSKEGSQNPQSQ

Structure (SMILES): O=c1c(-c2ccc(O)cc2)coc2cc(O)cc(O)c12 [Genistein, genistein]
- effect on tamoxifen (MCF-7): attenuates the inhibitory effect of tamoxifen
- cell proliferation of estrogen-dependent breast cancer cells (MCF-7) (MCF-7): promotes cell proliferation

Structure (SMILES): O=c1c(-c2ccc(O)cc2)coc2cc(O)ccc12 [daidzein]
- binding to ERβ (ERβ): binds weakly
- effect on tamoxifen (MCF-7): improved the therapeutic effect of tamoxifen
- cell proliferation of estrogen-dependent breast cancer cells (MCF-7) (MCF-7): suppressed the proliferation
